Earlier results on 1 compound are cited in paper PMC5383348 (Trends in cancer, 2017).

Data set [1] has as its system cultured cancer cell lines for triple-negative breast cancer and multiple myeloma.
The test system of a further data set is recombinant human GLS. To be noted: read-out: IC50 value against recombinant human GLS.
Data set [2] deals with xenograft models for triple-negative breast cancer and multiple myeloma.

For the compound `O=C(Cc1cccc(OC(F)(F)F)c1)Nc1ccc(CCCCc2nnc(NC(=O)Cc3ccccn3)s2)nn1` [CB-839], the “efficacy against cultured cancer cell lines” value in data set [1] is on record as “shown efficacy”. Besides, the IC50 in the data set with recombinant human GLS was below 50 nM. Further, the “efficacy against xenograft models” value in data set [2] is given as “shown efficacy”.
